We go through 15 molecules from patent US8546575B2, “NIP thiazole derivatives as inhibitors of 11-beta-hydroxysteroid dehydroge-nase-1” (Merck Patent GmbH, priority 2008, dated 2013).

Assay [1] deals with humans. The settings on record: cited from earlier work.
For assay [2], the system named is normal patients. The settings on record: cited from earlier work.
The target of assay [3] is T1, human 11-β-HSD-1 (Homo sapiens, UniProt P28845).
T1 construct: made in house; host or cells: E. coli
The assay is described as follows: Inhibition of 11-β-HSD-1 enzyme assay (HTRF Cortisol), human recombinant enzyme. The settings on record: for IC50: human recombinant enzyme from E. coli, cortisone/NADPH 200 nM/200 μM. The class given is biochemical. The method, then: (§1) Human recombinant 11-beta-hydroxysteroid dehydrogenase type 1 (11-β-HSD-1) enzyme was expressed in E. coli. Rat and mice liver microsome fractions were purchased from TEBU.
(§2) The 11-β-HSD-1 enzyme assay was carried out in 96 well microtiter plates in a total volume of 100 μl containing 30 mM Hepes buffer, pH 7.4 with 1 mM EDTA, substrate mixture cortisone/NADPH (200 nM/200 μM), G-6-P (1 mM) and inhibitors in serial dilutions. Reactions were initiated by addition of 10 μl 11-β-HSD-1 (3 μg) from E. coli, either as microsome fractions from rat and mice liver (2.5 μg). Following mixing, the plates were shaken for 150 minutes at 37° C. The reactions were terminated with 10 μl Acid-18beta Glycyrrhetinic stop solution. Determinations of Cortisol levels in 11-β-HSD-1 preparations were monitored by HTRF (HTRF Cortisol assay from Cis bio international).
(§3) Activity is expressed in % of control or concentration to inhibit 50% of the enzyme activity (IC50) (table 6).

The target of assay [4] is T2, mouse 11-β-HSD-1 (Mus musculus, UniProt P50172).
T2 construct: either as microsome fractions from rat and mice liver (2.5 μg); tissue TEBU; host or cells: mouse liver microsome fractions
The experiment in a line: Inhibition of 11-β-HSD-1 enzyme assay (HTRF Cortisol), mice liver microsome fractions. The settings on record: for remaining activity at 1 µM: read-out: Inhibition of mouse 11-β-HSD-1 % of control at 1 μM. The class given is biochemical. The method, then:
as §1, §2, §3

T1 sequence (P28845 whole entry): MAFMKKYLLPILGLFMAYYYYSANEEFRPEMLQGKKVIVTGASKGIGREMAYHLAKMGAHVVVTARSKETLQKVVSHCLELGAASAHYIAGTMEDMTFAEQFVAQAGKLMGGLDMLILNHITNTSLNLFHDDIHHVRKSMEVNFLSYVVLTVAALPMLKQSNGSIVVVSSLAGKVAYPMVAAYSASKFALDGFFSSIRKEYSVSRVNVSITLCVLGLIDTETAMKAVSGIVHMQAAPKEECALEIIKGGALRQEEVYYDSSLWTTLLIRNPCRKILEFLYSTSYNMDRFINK
T2 sequence (P50172 whole entry): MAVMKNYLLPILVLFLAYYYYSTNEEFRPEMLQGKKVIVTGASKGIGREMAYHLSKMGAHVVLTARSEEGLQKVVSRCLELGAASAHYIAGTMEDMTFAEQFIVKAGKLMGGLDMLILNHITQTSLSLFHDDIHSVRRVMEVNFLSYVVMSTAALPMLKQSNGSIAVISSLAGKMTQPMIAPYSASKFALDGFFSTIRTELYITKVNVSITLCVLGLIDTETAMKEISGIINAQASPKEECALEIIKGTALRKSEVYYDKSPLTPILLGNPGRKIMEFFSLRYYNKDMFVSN

With `CC1(C)[C@@H](OC(=O)CCC(=O)O)CC[C@]2(C)[C@H]3C(=O)C=C4[C@@H]5C[C@@](C)(C(=O)O)CC[C@]5(C)CC[C@@]4(C)[C@]3(C)CC[C@@H]12` [carbenoxolone], the hepatic insulin sensitivity entry in assay [1] is listed as “improved hepatic insulin sensitivity”. In assay [2], the “reduction of the intraocular pressure” value is reported as 20%.

As for `O=C(c1csc(C2CCNCC2)n1)N1CCCC2CCCCC21` (stereo not shown) [Compound 1.2, (Octahydro-quinolin-1-yl)-(2-piperidin-4-yl-thiazol-4-yl)-methanone], the remaining activity at 1 µM in assay [3] (at 1 μM, human recombinant enzyme, read-out: Inhibition of human 11-β-HSD-1 % of control at 1 μM) was 27%.

With `O=C(c1csc(C2CCN(S(=O)(=O)CCc3ccncc3)CC2)n1)N(C1CCCCC1)C1CC1` [Compound 4.18, 2-[1-(2-Pyridin-4-yl-ethanesulfonyl)-piperidin-4-yl]-thiazole-4-carboxylic acid cyclohexyl-cyclopropyl-amide], the IC50 in assay [3] worked out at 1000 nM. Also, in assay [4], the remaining activity at 1 µM worked out at 49%.

`O=C(CCC1CCCC1)N1CCC(c2nc(C(=O)N(C3CCCCC3)C3CC3)cs2)CC1` [Compound 2.7, 2-[1-(3-Cyclopentyl-propionyl)-piperidin-4-yl]-thiazole-4-carboxylic acid cyclohexyl-cyclopropyl-amide]: the IC50 in assay [3] amounted to 420 nM; in assay [4], 630 nM.

`COc1ccc(CNC(=O)N2CCC(c3nc(C(=O)N4CCCC5CCCCC54)cs3)CC2)cc1` (stereo not shown) [Compound 3.22, 4-[4-(Octahydro-quinoline-1-carbonyl)-thiazol-2-yl]-piperidine-1-carboxylic acid 4-methoxy-benzylamide]: the IC50 was determined as 53 nM in assay [3] and 500 nM in assay [4].

Take `O=C(c1csc(C2CCNCC2)n1)N(C1CCCCC1)C1CC1` [Compound 1.1, 2-Piperidin-4-yl-thiazole-4-carboxylic acid cyclohexyl-cyclopropyl-amide]: the IC50 in assay [3] stood at 1200 nM; in assay [4], 290 nM.

As to `O=C(C1CCCCC1)N1CCC(c2nc(C(=O)N3CCCC4CCCCC43)cs2)CC1` (stereo not shown) [Compound 2.17, [2-(1-Cyclohexanecarbonyl-piperidin-4-yl)-thiazol-4-yl]-(octahydro-quinolin-1-yl)-methanone], the 50% inhibitory concentration (IC50) in assay [3] was found to be 200 nM; in assay [4] it was 340 nM.

Turning to `O=C(C1CCCC1)N1CCC(c2nc(C(=O)N3CCCC4CCCCC43)cs2)CC1` (stereo not shown) [Compound 2.18, [2-(1-Cyclopentanecarbonyl-piperidin-4-yl)-thiazol-4-yl]-(octahydro-quinolin-1-yl)-methanone], the concentration for half-maximal inhibition (IC50) in assay [3] was found to be 130 nM; in assay [4] it was 490 nM.

In the case of `O=C(c1csc(C2CCN(S(=O)(=O)c3cccs3)CC2)n1)N(C1CCCCC1)C1CC1` [Compound 4.11, 2-[1-(Thiophene-2-sulfonyl)-piperidin-4-yl]-thiazole-4-carboxylic acid cyclohexyl-cyclopropyl-amide], in assay [3], the IC50 worked out at 720 nM.

`COc1ccc(S(=O)(=O)N2CCC(c3nc(C(=O)N(C4CCCCC4)C4CC4)cs3)CC2)cc1` [Compound 4.20, 2-[1-(4-Methoxy-benzenesulfonyl)-piperidin-4-yl]-thiazole-4-carboxylic acid cyclohexyl-cyclopropyl-amide]: the IC50 is 280 nM in assay [3] and 1000 nM in assay [4].

Take `CCC(C)NC(=O)N1CCC(c2nc(C(=O)N3CCCC4CCCCC43)cs2)CC1` (stereo not shown) [Compound 3.1, 4-[4-(Octahydro-quinoline-1-carbonyl)-thiazol-2-yl]-piperidine-1-carboxylic acid sec-butylamide]: the figures for the IC50 in assay [3] and in assay [4] were 270 nM and 470 nM, respectively.

On to `CCCCCNC(=O)N1CCC(c2nc(C(=O)N3CCCC4CCCCC43)cs2)CC1` (stereo not shown) [Compound 3.7, 4-[4-(Octahydro-quinoline-1-carbonyl)-thiazol-2-yl]-piperidine-1-carboxylic acid pentylamide], for which the IC50 came out at 340 nM in assay [3] and 59 nM in assay [4].

Take `O=C(c1csc(C2CCN(S(=O)(=O)C(F)(F)F)CC2)n1)N1CCCC2CCCCC21` (stereo not shown) [Compound 4.1, (Octahydro-quinolin-1-yl)-[2-(1-trifluoromethanesulfonyl-piperidin-4-yl)-thiazol-4-yl]-methanone]: the values for the IC50 in assay [3] and in assay [4] were 32 nM and 330 nM, respectively.

In the case of `CCCCS(=O)(=O)N1CCC(c2nc(C(=O)N3CCCC4CCCCC43)cs2)CC1` (stereo not shown) [Compound 4.2, {2-[1-(Butane-1-sulfonyl)-piperidin-4-yl]-thiazol-4-yl}-(octahydro-quinolin-1-yl)-methanone], the results for the IC50 in assay [3] and in assay [4] were 93 nM and 210 nM, respectively.

In the case of `CC(C)(C)CC(=O)N1CCC(c2nc(C(=O)N3CCCC4CCCCC43)cs2)CC1` (stereo not shown) [Compound 2.1, 3,3-Dimethyl-1-{4-[4-(octahydro-quinoline-1-carbonyl)-thiazol-2-yl]-piperidin-1-yl}-butan-1-one], the IC50 in assay [3] was found to be 92 nM. Moreover, the remaining activity at 1 µM in assay [4] came to 51%.
